Results taken from patent US20260274922A1, “SYNTHETIC ESTROGEN RECEPTOR (ER)-DERIVED PEPTIDE” (THE TEXAS A&M UNIVERSITY SYSTEM, priority 2023, published 2026).
Where no end group is shown, it is not given here. The star is where a group is joined. FITC = O=C1OC2(c3ccc(O)cc3Oc3cc(O)ccc32)c2ccc(NC(=S)*)cc21

Tests used:
IRS1 = biological target: T1, IRS1 (Homo sapiens, UniProt P35568); assay: Effect of AF1 peptide on IRS1 ubiquitination in HEK293T cells; assay type: cell-based
T1 sequence (P35568 1-1242): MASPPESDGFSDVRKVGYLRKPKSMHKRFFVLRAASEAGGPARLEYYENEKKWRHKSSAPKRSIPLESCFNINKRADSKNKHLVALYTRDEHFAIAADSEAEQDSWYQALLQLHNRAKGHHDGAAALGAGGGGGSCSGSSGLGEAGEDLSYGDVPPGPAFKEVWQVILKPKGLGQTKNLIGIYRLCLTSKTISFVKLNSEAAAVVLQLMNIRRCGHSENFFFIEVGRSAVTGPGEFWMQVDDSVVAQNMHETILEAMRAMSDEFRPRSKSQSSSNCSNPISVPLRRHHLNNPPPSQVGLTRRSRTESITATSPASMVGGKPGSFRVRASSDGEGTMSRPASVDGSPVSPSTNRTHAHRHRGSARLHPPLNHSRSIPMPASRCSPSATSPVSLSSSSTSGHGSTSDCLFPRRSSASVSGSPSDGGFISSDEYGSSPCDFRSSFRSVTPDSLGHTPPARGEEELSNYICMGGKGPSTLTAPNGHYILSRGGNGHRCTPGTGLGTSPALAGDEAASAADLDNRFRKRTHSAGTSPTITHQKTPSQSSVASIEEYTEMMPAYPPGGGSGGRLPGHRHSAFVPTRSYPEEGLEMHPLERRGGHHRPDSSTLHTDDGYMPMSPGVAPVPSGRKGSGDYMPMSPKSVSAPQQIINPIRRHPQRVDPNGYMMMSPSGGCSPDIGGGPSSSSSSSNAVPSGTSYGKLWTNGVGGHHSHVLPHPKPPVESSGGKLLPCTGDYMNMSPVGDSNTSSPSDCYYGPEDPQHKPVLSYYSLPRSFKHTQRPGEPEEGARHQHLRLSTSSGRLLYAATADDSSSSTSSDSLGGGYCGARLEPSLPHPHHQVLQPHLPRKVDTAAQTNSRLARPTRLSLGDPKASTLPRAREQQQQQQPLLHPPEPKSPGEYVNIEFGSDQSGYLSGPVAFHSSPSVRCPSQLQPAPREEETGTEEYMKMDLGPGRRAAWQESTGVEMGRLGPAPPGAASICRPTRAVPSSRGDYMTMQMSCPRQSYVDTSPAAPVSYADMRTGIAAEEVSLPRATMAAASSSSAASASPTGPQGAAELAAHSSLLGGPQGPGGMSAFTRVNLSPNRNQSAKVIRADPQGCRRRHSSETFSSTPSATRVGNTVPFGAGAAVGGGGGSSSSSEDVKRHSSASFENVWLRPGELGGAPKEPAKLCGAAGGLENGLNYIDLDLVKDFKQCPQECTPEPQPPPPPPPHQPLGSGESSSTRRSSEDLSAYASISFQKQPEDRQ
Source text: (§1) Co-immunoprecipitation and Western blotting analysis. […] Protein bands were detected using a ChemiDoc image system.

[1] = system: primary mouse hepatocytes; assay: Hepatic glucose production (HGP) in primary hepatocytes upon glucagon treatment; assay type: cell-based; settings: WT primary hepatocytes
Experimental: Hepatic glucose production. The primary mouse hepatocytes were isolated from 8-12-week-old male mice. Cells were resuspended in DMEM medium (2% FBS and 1% penicillin-streptomycin) for 3 h and cultured in HGP buffer (118 mM NaCl, 2.5 mM CaCl2, 4.8 mM KCl, 25 mM NaHCO3, 1.1 mM KH2PO4, 1.2 mM MgSO4, […], 0.6% BSA, 10 mM HEPES, 10 mM sodium DL-lactate, and 5 mM pyruvate, pH 7.4). Then cells were pretreated with 50 nM glucagon for 30 min, followed by 10 nM insulin treatment for 3 h, and glucose level in the medium was measured using Amplex Red Glucose Assay. The results were normalized by cell protein abundance.

[2] = system: insulin signaling (IRS1, pAKT); assay: Insulin sensitivity in WT primary mouse hepatocytes (IRS1, insulin-stimulated AKT phosphorylation); assay type: cell-based
Experimental: (§2) Primary hepatocytes isolation and cell culture. Primary hepatocytes were isolated. Male mice at age of 8-12 weeks were infused with a perfusion buffer A (calcium and magnesium-free HBSS supplemented with 10 mM HEPES, […], 1 mM glucose, and 1% penicillin-streptomycin, pH 7.4) through portal vein for 6-8 min. Then perfusion buffer A was changed to buffer B (calcium and magnesium-free HBSS supplemented with 10 mM HEPES, 1 mM CaCl2), 1 mM glucose, 1% penicillin-streptomycin, and 0.5 mg/mL collagenase II, pH 7.4). […] Liver cells were suspended and passed through a 70 μm cell strainer, followed by centrifuge at 1700 rpm for 2 min. Pellets were resuspended with Percoll at final concentration of 36% and centrifuged at 1800 rpm for 6 min. The hepatocyte pellet was washed and suspended with DMEM supplemented with 10% FBS and 1% penicillin-streptomycin in collagen-coated plates. The HepG2 cell line was purchased from Abcam and cultured with DMEM medium supplemented with 10% FBS and 1% penicillin-streptomycin in collagen-coated plates. The human embryo kidney (HEK) 293 cell line was purchased from Sigma and cultured with DMEM medium supplemented with 10% FBS and 1% penicillin-streptomycin. FBS-free DMEM medium was used to culture cells during the experiments.
as §1

[3] = system: insulin signaling (IRS1, pAKT); assay: Insulin sensitivity in ERα deficient primary mouse hepatocytes; assay type: cell-based
Experimental: as §2, §1

12-month-old female mice = assay: AF1 peptide treatment of aging female mice (12-month-old); assay type: in vivo, mouse; settings: 5 mg/kg i.v. twice per week, 5 weeks
Experimental: Postmenopause in old women is highly associated with increased risk of diabetes.
Glucose and insulin tolerance tests. For glucose tolerance tests, mice were fasted for 16 h and intraperitoneally (i.p.) injected with dextrose (1 g/kg body weight for mice fed with regular diet; 0.5 g/kg body weight for db/db mice or mice fed with HFD). For insulin tolerance tests, mice were fasted for 6 h and i.p. injected with insulin solution (1 U/kg body weight for male mice; 0.75 U/kg body weight for female mice). Blood glucose levels were measured using glucometer at indicated time points.

[4] = ERα deficient primary hepatocytes

In the case of “YGRKKRRQRRRTKASGMALLHEPLNRPQLKIPLERDSSKPAVYNY ({FITC}-YGRKKRRQRRRTKASGMALLHEPLNRPQLKIPLERDSSKPAVYNY) [AF1 peptide]”, the “ubiquitination of IRS1” value (IRS1) is reported as “attenuated”, the “glucagon-induced hepatic glucose production (HGP)” value [1] is reported as “did not impair” and the “enhancement of insulin-mediated suppression of HGP” value ([1]; under glucagon challenge) is reported as 22%. For the same sequence, the “enhancement in insulin-stimulated AKT phosphorylation at S473” value [2] was 210%, the “enhancement in insulin-stimulated AKT phosphorylation at T308” value [2] was 82% and the “increase in IRS1 protein levels” value ([2]; FIG. 6J) was 90%. The “increase in IRS1 protein levels” value [3, 4] was 80%, the “increase in pAKT-S473 protein levels” value [3, 4] was 46% and the “increase in pAKT-T308 protein levels” value [3, 4] was 50%. For the same sequence, the “rescue of ERα deficiency-induced insulin resistance” value ([3]; compared to ERαF/F hepatocytes) was “partially rescued”, the glucose tolerance (12-month-old female mice) was “nonsignificant increase” and the insulin sensitivity (12-month-old female mice) was “modest improvement”.
